Test results reported in patent US20240148757A1, “USE OF DIHYDROOROTATE DEHYDROGENASE (DHODH) INHIBITORS TO TARGET FERROPTOSIS IN CANCER THERAPY” (BOARD OF REGENTS, THE UNIVERSITY OF TEXAS SYSTEM, priority 2021, published 2024).

Key:
NCI-H226 cells = assay: Intracellular metabolite levels upon supplementation; format: in vitro ADME, human; settings: for intracellular levels upon supplementation: 100 μM, 48 hours
Protocol: (§1) Metabolomic analysis was performed as previously described (Liu, X., et al., Nat Cell Biol 22, 476-486 (2020)). Cells were seeded on 35 mm culture plates at a density sufficient to ensure approximately 70-80% confluence at the time of extraction. For metabolic tracer analysis of pyrimidine synthesis, HT-1080 cells were treated with RSL3 and/or Lip-1 for 2 hours and then were shifted to drug-free media containing amide-^15N-glutamine (this time point is defined as 0 hour). Metabolites were extracted at the indicated time points for subsequent analyses. Metabolites were extracted by rapidly aspirating the culture medium and then adding 0.6 mL of an 80% methanol: 20% water mixture at dry ice temperature. The plates were incubated on dry ice for 15 minutes before the cell material was scraped into eppendorf tubes pre-chilled on ice. The cell debris was pelleted by centrifugation at 13,000 RCF for 5 minutes at 4° C. and the supernatant was transferred to a fresh tube and stored on dry ice until analysis. Just prior to analysis, 500 μL of extract was dried under nitrogen gas flow and then resuspended in 100 μL water.
(§2) The complete platform consists of an Accela 1250 HPLC system, Accela Open Autosampler, MayLab Mistraswitch column oven and Exactive orbitrap mass spectrometer, controlled by the Xcalibur 3.0.63 software package. Chromatography was performed with a Phenomenex Synergi Hydro-RP column (100×2 mm, 2.5 μm particle size). Solvent A is 10 mM tributylamine and […] acetic acid in water; Solvent B is methanol. The gradient is: 0 min, 0% B; 2.5 min, 0% B; 5 min, 20% B; 7.5 min, 20% B; 13 min, 55% B; 15.5 min, 95% B; 18.5 min, 95% B; 19 min, 0% B; 25 min, 0% B. The injection volume was 10 μL. The column temperature was set to 40° C., and the flow rate was 200 μL/min. The Exactive was operated in negative ionization mode with an electrospray ionization interface. The instrument parameters are as follows: sheath gas flow rate 30 (arbitrary units), aux gas flow rate 10 (arbitrary units), sweep gas flow rate 3 (arbitrary units), spray voltage 3 kV, capillary temperature 325° C., capillary voltage −25 V, tube lens voltage −50 V. The scan range was set to 80-1000 m/z, with a maximum inject time of 250 ms, resolution of 100,000 at 1 Hz, and AGC (automatic gain control) target 1E6. The data were analyzed using the MAVEN software suite57 with signal intensity determined as the Peak Area (Top). For metabolic labeling experiments, the data were corrected to account for the natural abundance of nitrogen-15 using IsoCorrectoR (Heinrich, P., et al., Sci Rep 8, 17910 (2018)).

GPX4^low NCI-H226 cells = assay: Cell viability / cell death (ferroptosis) in NCI-H226 cells; format: cell-based, human; settings: pretreatment 48 hours (C-Asp, DHO, OA 100 μM; uridine 50 μM), RSL3 4 hours
Protocol: (§3) Viable cells were measured using Cell Counting Kit-8 (CCK-8, Dojindo) as previously described (Koppula, P., Zhang, Y., Shi, J., Li, W. & Gan, B, J Biol Chem 292, 14240-14249 (2017); Liu, X. & Gan, B, Cell Cycle 15, 3471-3481 (2016)). Briefly, cells were seeded onto 96-well plates at a density of 2×10^4 per well. The next day, cells were treated with GPX4 or DHODH inhibitors for 4 hours. Subsequently, cells exposed to 10 μl CCK-8 reagent (100 μl medium per well) for 1 hour at 37° C., 5% CO2 in an incubator. The absorbance at a wavelength of 450 nm was determined using a FLUOstar Omega microplate reader (BMG Labtech).
(§4) Cell death was measured by propidium iodide (Roche) staining using a flow cytometer, as previously described (Dai, F., et al., Proc Natl Acad Sci USA 114, 3192-3197 (2017); Zhang, Y., et al., Cancer Res 80, 2243-2256 (2020)). For propidium iodide-staining, cells were seeded at a density of 50% confluence into 12-well plates. The next day, cells were treated with different reagents. To measure cell death, the cells were collected (including floating dead cells), stained with 5 μg/ml propidium iodide and the percentage of the propidium iodide-positive dead cell population was analyzed using the flow cytometer BD Accuri C6 (BD Biosciences) and an FL2 detector. A minimum of 10,000 single cells were analyzed per well and all experiments were carried out at least in triplicate.

[1] = tested on: GPX4^high and GPX4^low cancer cell lines; assay: Cell viability in panel of GPX4^high and GPX4^low cancer cell lines; format: cell-based, human; settings: supplementation 100 μM 48 hours, RSL3 4 hours
Protocol: as §3

[2] = tested on: multiple cancer cell lines; assay: Global metabolomic analysis; format: cell-based, human; settings: short-term (2-hour) treatment, 10 μM
Protocol: as §1, §2

DHODH KO HT-1080 cells [3] = assay: Cell viability / cell death (ferroptosis) in DHODH KO HT-1080 cells; format: cell-based, human; settings: for protection against GPX4 inhibition (RSL3 or ML162)-induced ferroptosis: DHODH KO, pretreatment 10 μM, 24 hours
Protocol: Knockout of DHODH, ACSL4 and COQ2 in human cell lines was performed using single guide RNAs (sgRNAs) and doxycycline (DOX)-inducible CRISPR-Cas9 expression system as described in our recent publication (Lee, H., et al., Nature cell biology 22, 225-234 (2020)). sgRNAs were cloned into the lentiviral lentiGuide vector. LentiGuide clones were transfected into HEK293T cells with psPAX2 packaging plasmid and pMD2.G expressing plasmid. Cells were infected with lentivirus with 0.8 μg/ml polybrene, selected with puromycin (1 μg/ml, InvivoGen), blasticidin (2 μg/ml, InvivoGen) or hygromycin B (2 μg/ml, InvivoGen) for 3 days and then single cells were sorted into 96-well plates. Single cells were maintained in DMEM with 10% (v/v) FBS and 1% (v/v) penicillin/streptomycin at 37° C. in an incubator with 20% O2 and 5% CO2 for 3-4 weeks and each colony was verified by western blot to confirm the target gene deletion. To generate cell lines with DOX-inducible CRISPR-Cas9-mediated gene deletion, cells were infected with lentivirus, selected with puromycin (1 μg/ml, InvivoGen), blasticidin (2 μg/ml, InvivoGen) or hygromycin B (2 μg/ml, InvivoGen) for 2 days and then single cells were sorted into 96-well plates. Once cell lines were established, 1 μg/ml of DOX (Sigma-Aldrich) was added to the media to induce target gene deletion for 48 hours after selection; then cells were cultured in DOX-free media for subsequent analyses.
as §3, §4

GPX4^high HT-1080 cells = assay: Cell viability / cell death (ferroptosis) in HT-1080 cells; format: cell-based, human; settings: 24 hours; for protection against GPX4 inhibition (RSL3 or ML162)-induced ferroptosis: DHODH WT, pretreatment 10 μM
Protocol: Briefly, cells were seeded onto 96-well plates at a density of 2×10^4 per well. The next day, cells were treated with GPX4 or DHODH inhibitors for 4 hours. Subsequently, cells exposed to 10 μl CCK-8 reagent (100 μl medium per well) for 1 hour at 37° C., 5% CO2 in an incubator. The absorbance at a wavelength of 450 nm was determined using a FLUOstar Omega microplate reader (BMG Labtech).
as §4, with “For” for “Cell death was measured by propidium iodide (Roche) staining using a flow cytometer, as previously described (Dai, F., et al., Proc Natl Acad Sci USA 114, 3192-3197 (2017); Zhang, Y., et al., Cancer Res 80, 2243-2256 (2020)). For”

DHODH KO HT-1080 cells [4] = assay: Mitochondrial lipid peroxidation (mito-BODIPY) in DHODH KO HT-1080 cells; format: cell-based, human; settings: pretreatment 10 μM, 24 hours

Compound	intracellular levels upon supplementation (NCI-H226 cells)	effect of supplementation on cellular sensitivity to GPX4 inhibition (RSL3) (GPX4^low NCI-H226 cells)	protection against GPX4 inhibition (RSL3 or ML162)-induced ferroptosis (GPX4^high HT-1080 cells)	suppression of GPX4 inhibitor-induced mitochondrial lipid peroxidation (DHODH KO HT-1080 cells [4])	protection against GPX4 inhibition (RSL3 or ML162)-induced ferroptosis (DHODH KO HT-1080 cells [3])	further results
NC(=O)N[C@@H](CC(=O)O)C(=O)O [C-Asp, N-Carbamoyl-L-aspartate]	only moderately increased	did not affect ferroptosis sensitivity	–	–	–	cell permeability (NCI-H226 cells): largely impermeable to cells
O=C1CC(C(=O)O)NC(=O)N1 (stereo not shown) [DHO, dihydroorotate]	drastically increased	protected cells from	–	–	–	protecting (DHO) or sensitizing (OA) effect in GPX4^low versus GPX4^high cell lines [1]: much more pronounced
COc1ccc(N(C(=O)CCl)C(C(=O)NCCc2ccccc2)c2cccs2)cc1Cl (stereo not shown) [ML162]	–	–	–	–	–	C-Asp level [2]: marked depletion; uridine level [2]: concomitant accumulation; sensitization by DHODH deletion to compound-induced lipid peroxidation and ferroptosis (DHODH KO HT-1080 cells [3]; uridine-supplemented conditions): markedly sensitized
O=C(O)c1cc(=O)[nH]c(=O)[nH]1 [OA, orotate]	drastically increased	sensitized cells to	–	–	–	protecting (DHO) or sensitizing (OA) effect in GPX4^low versus GPX4^high cell lines [1]: much more pronounced
CC1(C)CCCC(C)(C)N1[O] [TEMPO, 2,2,6,6-tetramethyl-1-piperidinyloxy]	–	–	rescued	could be suppressed	rescued	–
CC1(C)CC(NC(=O)C[P+](c2ccccc2)(c2ccccc2)c2ccccc2)CC(C)(C)N1[O] [mito-TEMPO, 2-(2,2,6,6-tetramethylpiperidin-1-oxyl-4-ylamino)-2-oxoethyl) triphenylphosphonium chloride]	–	–	–	could be suppressed	provided substantial protection	–
COC1=C(OC)C(=O)C(CCCCCCCCCC[P+](c2ccccc2)(c2ccccc2)c2ccccc2)=C(C)C1=O [mitoQ, [10-(4,5-dimethoxy-2-methyl-3,6-dioxo-1,4-cyclohexadien-1-yl)decyl] triphenyl-phosphonium, monomethanesulfonate]	–	–	provided limited protection	–	–	–
COc1c(O)c(C)c(CCCCCCCCCC[P+](c2ccccc2)(c2ccccc2)c2ccccc2)c(O)c1OC.CS(=O)(=O)[O-] [mitoQH2, [10-(2,5-dihydroxy-3,4-dimethoxy-6-methylphenyl)decyl] triphenyl-phosphonium, monomethanesulfonate]	–	–	provided limited protection	significantly protected	significantly protected	–
N-benzyloxycarbonyl-val-ala-asp(o-me) fluoromethyl ketone [Z-VAD-FMK]	–	–	–	–	–	rescue of DHODH inhibition-induced cell death (GPX4^high HT-1080 cells; BQR, pretreatment Lip-1 or ZVF 10 μM): the opposite was observed
